The values that follow come from US5691310A, “Methods of treatment using proANF peptides” (priority 1995, dated 1997).

The subject of assay [1] is particulate guanylate cyclase. Description: particulate guanylate cyclase activity in the kidney. Format: biochemical. Particulars: 1 μM; whole kidney homogenates, renal cortical and medullary membranes, isolated distal nephron.
Method: Testing is also carried out to determine biologic effects of these peptides by measuring their effects on particulate guanylate activity in the kidney.
Assay [2] has as its system rats who have acute renal failure. The assay can be described thus: blood urea nitrogen in rats with acute renal failure. The assay is classed as in vivo, rat. Particulars: over three days. An excerpt: FIG. 6. ProANF 31-67 (i.e., vessel dilator) prevents the rise in blood urea nitrogen (BUN) in rats who have acute renal failure.
Assay [3] can be described thus: overcoming the negative ionotropic effect of Verapamil.
Assay [4] concerns renal medullary Na+-K+-ATPase. Description: inhibition of renal medullary Na+-K+-ATPase activity. Format: biochemical. Particulars: 10^-11 M.
The next assay deals with porcine aorta. Description: vasodilation of porcine aortic strips preconstricted with 0.3 micromolar phenylephrine. Also noted: species or system pig. As to the method: 30 Kg pigs are sacrificed, and aortic strips are harvested. The strips are attached to F-60 transducer (Narco-BioSystems, Houston, Tex.) and attached to a physiography (Narco-BioSystems) while being submerged in a muscle tissue bath comprising a Krebs Ringer solution at 37° C., with 95% 02 -5% CO2, bubbled through the bath. Percentage vasodilation is measured versus time (as reported in FIG. 1) after preconstriction with 0.3 micromolar phenylephrine.

For a further assay, the system named is healthy human subjects. The assay can be described thus: infusion into healthy human subjects. The assay is classed as in vivo. Particulars: healthy humans. As to the method:
Infusion of these peptides into healthy human subjects was performed as follows: Human pro-ANF 1-30, pro-ANF 31-67, and pro-ANF 79-98, and hANF (i.e., pro-ANF […], were synthesized by Peninsula Laboratories (Belmont, Calif.). High pressure liquid chromatography (HPLC) analysis was performed on a sample of each of the four peptides to ensure purity. The peptides were dissolved in a sterile 0.9% saline solution to a concentration of 100 μg/ml and dispensed in 2 and 5 ml aliquots into sealed sterile vials. At the time of dispensing, randomly selected vials were tested for pyrogens and sterility. Prior to labeling the vials, the actual peptide content of the dispensed solution were determined by direct radioimmunoassay to account for any possible absorption of the respective peptides to the walls of the vials. All vials were then stored at -80° C. until thawed for individual study.
Normal healthy subjects were chosen on the basis of age (between 20 and 50 years), physical examination and biochemical screenings. The subjects consumed their normal diets prior to testing. The subjects fasted overnight and were tested in the morning in the seated position. Intravenous catheters were placed bilaterally for the administration of pro-hANF 1-30, pro-hANF 31-67, pro-hANF 79-98 and hANF [pro-hANF 99-126] and for blood sampling. After completion of a 45-minute equilibration period, there were three 60-minute phases of the study: baseline, experimental infusion (60 minutes) and recovery (3 hours). The baseline phase consisted of two 30 minute urine collection periods, the experimental phase consisted of three 20 minute urine and plasma collection periods, and the recovery phase consisted of two 30 minute urine and plasma collection periods each hour for three hours post-infusion. Urine output was replaced on a milliliter per milliliter basis throughout the study by administering oral water or orange juice. Urine samples were obtained by voiding at the designated collection periods.
The 36 subjects were divided into 6 groups. One group (i.e., the control group) received a placebo infusion of 0.9% sodium chloride during the experimental infusion phase. […] The four remaining groups of six subjects each received human pro-hANF 1-30, pro-hANF 31-67, pro-hANF 79-98 and hANF. The four groups received the peptides by continuous infusion at the rate of 0.1 μg/kg per minute. The volume administered per hour during the experimental infusion phase was 10 ml for all four peptides and the placebo. All infusions were given by a constant-rate infusion pump, with the final concentrations of prohANFs adjusted for the subjects' body weight. The subjects heart rate and cuff blood pressure were taken at 5 minute intervals throughout the study. The excreted urine was analyzed for sodium concentration.

The next assay relates to Munich-Wistar rats. The assay can be described thus: rat clearance model (diuresis and salt excretion). Format: in vivo. As to the method: The same three peptides and ANF from Example I are tested using the rat clearance model. Six control rats and six experimental Munich-Wistar rats, each weighing 150-200 grams, are used for each peptide, with catheters being placed in both jugular veins and in the femoral artery. The ureters are cannulated for simultaneous urine collections with femoral artery blood collections.
After inserting the catheters, a stabilization of one hour is allowed. A 10 μg/kg bolus of each of the respective human sequences of the peptides is given via the jugular vein to six experimental rats followed by a sustaining infusion of 0.1 μg/kg/min for 60 minutes. Blood and urine samples are collected at 20 minute intervals during this 60 minute infusion. In both the control and experimental animals, hematocrits and plasma sodium values remained at the same levels pre- and post-infusion while blood pressure decreased with each of these peptides (see Attachment B).

In assay [5] the test system is human subjects with class II New York Heart Association congestive heart failure. Description: infusion into human subjects with congestive heart failure. Format: in vivo. As to the method: Human proANF's 1-30, 31-67, 79-98, and 99-126 (i.e., ANF) were infused into human subjects with class II New York Heart Association congestive heart failure. An identical protocol to that used in example V where these peptides were infused into healthy human subjects was utilized. (See Attachment C for a detailed description of this protocol). The human subjects with congestive heart failure received an identical dose (0.1 μg/kg body wt/minute for 60 minutes) that the healthy human subjects received.

Assay [6] relates to particulate guanylate cyclase. Description: cyclic GMP / particulate guanylate cyclase activation in cultured smooth muscle cells and porcine aorta. Particulars: cultured smooth muscle cells. The assay is classed as cell-based.
[7] abbreviates: congestive heart failure, 0.1 μg/kg body wt/minute.

On to “H-EVVPPQVLSEPNEEAGAALSPLPEVPPWTGEVSPAQR-OH [proANF 31-67, H-Glu-Val-Val-Pro-Pro-Gln-Val-Leu-Ser-Glu-Pro-Asn-Glu-Glu-Ala-Gly-Ala-Ala- Leu-Ser-Pro-Leu-Pro-Glu-Val-Pro-Pro-Trp-Thr-Gly-Glu-Val-Ser-Pro-Ala-Gln-Arg-OH]”, for which, in [1], the “particulate guanylate cyclase activity” value is “enhance particulate guanylate cyclase”. In [2], the “rise in blood urea nitrogen (BUN)” value is on record as “completely blocked the increase in BUN”. Also, the “negative ionotropic (slowing heartbeat) effect of Verapamil” value in [3] was “can overcome the negative ionotropic (slowing heartbeat) effect”. In addition, in [4], the “inhibition of renal medullary Na+-K+-ATPase activity” value was “Inhibition of renal medullary Na+-K+-ATPase activity”. In the assay with porcine aorta (associated with vasodilation of porcine aorta), the “increase in cyclic GMP levels over baseline levels” value was “four-to-five”. Further, the vasodilation result with porcine aorta (porcine aorta) is listed as “cause vasodilation”. The “increase of urine flow” value in the assay with healthy human subjects was 4-12 fold. Moreover, the “urine volume / urine flow (in words)” value in the assay on healthy human subjects (100 ng/kg body wt per minute for 1 hour i.v.) is “increase in urine volume”. In addition, in the assay on healthy human subjects (100 ng/kg body wt per minute for 60 minutes), the “sodium excretion compared to baseline (in words)” value is given as “significantly (P<0.05) increased sodium excretion”. Further, the “systolic and diastolic blood pressures” value in the assay on healthy human subjects (100 ng/kg/min i.v. for 60 minutes) is “decreasing systolic and diastolic blood pressures”. Also, the “UNa V, urinary sodium excretion rate” value is 144.08 ± 56.75 μeq-min^-1 -g kidney wt^-1 with Munich-Wistar rats (period A, control period (before peptide)); 1,057.68 ± 371.69 μeq-min^-1 -g kidney wt^-1 in the assay with Munich-Wistar rats (period B, 1st 60min experimental period, 10 μg/kg bolus then 0.1 μg/kg/min); 1,077.63 ± 306.10 μeq-min^-1 -g kidney wt^-1 in the assay on Munich-Wistar rats (period C, 2nd 60min experimental period). Also, the “urine output at 3 hours after stopping the infusion relative to pre-infusion values” in assay [5] (congestive heart failure) was 10 fold. For the same substance, in assay [5] (congestive heart failure patients), the “diuretic properties (in words)” value is “stronger diuretic properties than ANF”. For the same substance, the “urine output in 20 minutes of infusion” value in assay [5] (setting [7]) is “doubled”. In addition, the “urine output increase at the end of the 60 minute infusion” value in assay [5] (setting [7]) is listed as 7 fold. Also, the “urine output per 30 minute period” value in assay [5] (congestive heart failure, 3 hours after stopping the infusion (pre-infusion 30 mls)) was found to be 320 mls. Further, in assay [5] (human subjects with congestive heart failure), the “increase of sodium excretion” value is “three-to-eight”. Moreover, in [5] (humans with congestive heart failure), the “time after stopping the infusion for which diuresis / urine flow is still significantly (P<0.01) elevated” value is listed as “at least 3 hours”. Also, in assay [6], the “cyclic GMP levels” value is “increase cyclic GMP levels”.
